In patent US11254686B1 (Corvus Pharmaceuticals, Inc., priority 2017, dated 2022) one finds IC50 and Ratio data, which are given here for 21 compounds.

The IC50 is the concentration at which inhibition is half-maximal.

The target of assay [1] is adenosine A3 receptor (Homo sapiens (Human), UniProt P0DMS8). In words: Adenosine receptor activity assay (Table 1), A3 cAMP. The format is cell-based.
In assay [2] the target is adenosine A1 receptor (Homo sapiens (Human), UniProt P30542). In words: Adenosine receptor activity assay (Table 1), A1 cAMP. The format is cell-based.
In assay [3] the target is adenosine A2A receptor (Homo sapiens (Human), UniProt P29274). The experiment in a line: Adenosine receptor activity assay (Table 1), A2A activity. The format is biochemical. The following applies: read-out: Ave A2A cAMP IC50.
Assay [4] concerns the target adenosine A2B receptor (Homo sapiens (Human), UniProt P29275). In words: Adenosine receptor activity assay (Table 1), A2B activity. The format is biochemical. The following applies: for Ratio: A2A activity to A2B activity (A2A/A2B); for IC50: read-out: Ave A2B cAMP IC50.

Where only a bound is given, the exact number is not on record here.

adenosine A3 receptor, sequence (P0DMS8 whole entry): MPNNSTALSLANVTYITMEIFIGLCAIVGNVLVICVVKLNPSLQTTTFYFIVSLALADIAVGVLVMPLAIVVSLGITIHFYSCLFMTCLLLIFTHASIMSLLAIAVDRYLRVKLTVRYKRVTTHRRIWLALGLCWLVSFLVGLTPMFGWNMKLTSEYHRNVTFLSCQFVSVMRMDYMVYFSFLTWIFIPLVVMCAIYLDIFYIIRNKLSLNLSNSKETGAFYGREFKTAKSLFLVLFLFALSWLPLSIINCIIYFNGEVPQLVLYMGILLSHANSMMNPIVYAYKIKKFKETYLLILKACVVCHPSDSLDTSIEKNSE
adenosine A1 receptor, sequence (P30542 whole entry): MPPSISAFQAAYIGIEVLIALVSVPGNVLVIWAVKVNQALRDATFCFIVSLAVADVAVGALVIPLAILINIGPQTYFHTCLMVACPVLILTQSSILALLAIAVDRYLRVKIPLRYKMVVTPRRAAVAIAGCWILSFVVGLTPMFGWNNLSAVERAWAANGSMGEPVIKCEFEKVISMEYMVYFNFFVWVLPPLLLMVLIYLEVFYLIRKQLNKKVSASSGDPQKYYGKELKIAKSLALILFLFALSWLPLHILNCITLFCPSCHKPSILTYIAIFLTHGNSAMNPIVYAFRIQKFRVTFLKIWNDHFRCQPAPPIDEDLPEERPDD
adenosine A2B receptor, sequence (P29275 whole entry): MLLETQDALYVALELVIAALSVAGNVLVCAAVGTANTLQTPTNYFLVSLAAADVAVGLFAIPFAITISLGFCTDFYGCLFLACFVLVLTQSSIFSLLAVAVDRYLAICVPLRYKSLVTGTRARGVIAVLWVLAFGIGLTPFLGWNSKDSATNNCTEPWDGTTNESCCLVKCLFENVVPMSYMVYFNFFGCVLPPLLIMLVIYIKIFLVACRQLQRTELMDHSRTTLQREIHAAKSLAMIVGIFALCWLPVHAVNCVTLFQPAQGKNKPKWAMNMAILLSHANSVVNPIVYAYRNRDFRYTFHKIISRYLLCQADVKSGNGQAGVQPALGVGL
adenosine A2A receptor, sequence (P29274 whole entry): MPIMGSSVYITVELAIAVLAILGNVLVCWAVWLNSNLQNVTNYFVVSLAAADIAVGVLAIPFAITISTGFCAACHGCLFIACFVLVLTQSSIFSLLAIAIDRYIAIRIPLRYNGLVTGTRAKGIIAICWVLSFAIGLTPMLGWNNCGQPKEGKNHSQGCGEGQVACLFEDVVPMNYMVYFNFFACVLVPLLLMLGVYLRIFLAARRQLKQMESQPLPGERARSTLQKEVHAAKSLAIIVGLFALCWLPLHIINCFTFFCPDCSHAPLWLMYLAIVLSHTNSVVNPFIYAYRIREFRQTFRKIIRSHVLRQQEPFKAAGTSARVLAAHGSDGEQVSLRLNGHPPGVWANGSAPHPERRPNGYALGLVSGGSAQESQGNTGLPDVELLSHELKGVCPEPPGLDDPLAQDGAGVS

Consider `Cc1cc2nc(N[C@@H](C)c3ccccn3)nc(C(=O)N3CCCC3)c2s1` [Example Z244, (S)-(6-Methyl-2-((1-(pyridin-2-yl)ethyl)amino)thieno[3,2-d]pyrimidin-4-yl)(pyrrolidin-1-yl)methanone], for which the IC50 is 50 to 100 nM in assay [1], 50 to 100 nM in assay [2], 10 to 50 nM in assay [3] and less than 10 nM in assay [4]. For the same compound, the Ratio in assay [4] stood at 18.24.

On to `CO[C@@H]1CCN(C(=O)c2nc(N[C@@H](C)c3cncc(Cl)c3)nc3ccsc23)C1` [Example Z253, (2-(((S)-1-(5-Chloropyridin-3-yl)ethyl)amino)thieno[3,2-d]pyrimidin-4-yl)((R)-3-methoxypyrrolidin-1-yl)methanone], for which the IC50 in assay [1] is more than 500 nM; in assay [2], more than 500 nM; in assay [3], 100 to 500 nM; in assay [4], 10 to 50 nM. For the same compound, the Ratio in assay [4] was found to be 10.26.

On to `CO[C@H]1CCN(C(=O)c2nc(N[C@@H](C)c3cncc(Cl)c3)nc3ccsc23)C1` [Example Z254, (2-(((S)-1-(5-Chloropyridin-3-yl)ethyl)amino)thieno[3,2-d]pyrimidin-4-yl)((S)-3-methoxypyrrolidin-1-yl)methanone], for which the IC50 is more than 500 nM in assay [1], more than 500 nM in assay [2], 100 to 500 nM in assay [3] and 10 to 50 nM in assay [4]. Also, in assay [4], the Ratio turned out to be 9.38.

With `CO[C@H]1CCN(C(=O)c2nc(N[C@@H](C)c3ccccn3)nc3ccsc23)C1` [Example Z255, ((S)-3-Methoxypyrrolidin-1-yl)(2-(((S)-1-(pyridin-2-yl)ethyl)amino)thieno[3,2-d]pyrimidin-4-yl)methanone], the IC50 in assay [1] is more than 500 nM; in assay [2], more than 500 nM; in assay [3] it was 10 to 50 nM; in assay [4] it was 10 to 50 nM. For the same compound, the Ratio in assay [4] amounted to 1.81.

For the compound `C[C@H](Nc1nc(C(=O)N2CC[C@H](CO)C2)c2sccc2n1)c1cccnc1` [Example Z259, ((S)-3-(Hydroxymethyl)pyrrolidin-1-yl)(2-(((S)-1-(pyridin-3-yl)ethyl)amino)thieno[3,2-d]pyrimidin-4-yl)methanone], the IC50 was more than 500 nM in assay [1], more than 500 nM in assay [2], 100 to 500 nM in assay [3] and 10 to 50 nM in assay [4]. In assay [4], the Ratio was determined as 31.95.

With `C[C@H](Nc1nc(C(=O)N2CC[C@@H](CO)C2)c2sccc2n1)c1cccnc1` [Example Z260, ((R)-3-(Hydroxymethyl)pyrrolidin-1-yl)(2-(((S)-1-(pyridin-3-yl)ethyl)amino)thieno[3,2-d]pyrimidin-4-yl)methanone], the IC50 was more than 500 nM in assay [1], more than 500 nM in assay [2], 100 to 500 nM in assay [3] and 10 to 50 nM in assay [4]. Moreover, the Ratio in assay [4] was 16.27.

On to `C[C@H](Nc1nc(C(=O)NCC(F)(F)F)c2sccc2n1)c1cncc(F)c1` [Example Z263, (S)-2-((1-(5-Fluoropyridin-3-yl)ethyl)amino)-N-(2,2,2-trifluoroethyl)thieno[3,2-d]pyrimidine-4-carboxamide], for which the IC50 was more than 500 nM in assay [1], more than 500 nM in assay [2], 100 to 500 nM in assay [3] and 10 to 50 nM in assay [4]. Moreover, the Ratio in assay [4] is listed as 9.48.

With `COC1CN(C(=O)c2nc(N[C@@H](C)c3cncc(F)c3)nc3cc(C)sc23)C1` [Example Z268, (S)-(2-((1-(5-Fluoropyridin-3-yl)ethyl)amino)-6-methylthieno[3,2-d]pyrimidin-4-yl)(3-methoxyazetidin-1-yl)methanone], the IC50 in assay [1] is 50 to 100 nM; in assay [2], 50 to 100 nM; in assay [3], 50 to 100 nM; in assay [4], less than 10 nM. For the same compound, in assay [4], the Ratio is given as 57.63.

For `C[C@H](Nc1nc(C(=O)N2CCC[C@@H]2C)c2sccc2n1)c1cncc(F)c1` [Example Z271, (2-(((S)-1-(5-Fluoropyridin-3-yl)ethyl)amino)thieno[3,2-d]pyrimidin-4-yl)((S)-2-methylpyrrolidin-1-yl)methanone], the IC50 in assay [1] was more than 500 nM; in assay [2], more than 500 nM; in assay [3] it was 100 to 500 nM; in assay [4] it was 10 to 50 nM. Moreover, in assay [4], the Ratio is given as 9.24.

For `C[C@H](Nc1nc(C(=O)N2CCC[C@H]2C)c2sccc2n1)c1cncc(F)c1` [Example Z272, (2-(((S)-1-(5-Fluoropyridin-3-yl)ethyl)amino)thieno[3,2-d]pyrimidin-4-yl)((R)-2-methylpyrrolidin-1-yl)methanone], the IC50 was more than 500 nM in assay [1], more than 500 nM in assay [2], 100 to 500 nM in assay [3] and 10 to 50 nM in assay [4]. Besides, the Ratio in assay [4] came to 9.34.

Regarding `C[C@H](Nc1nc(C(=O)NCCO)c2sccc2n1)c1cncc(F)c1` [Example Z275, (S)-2-((1-(5-Fluoropyridin-3-yl)ethyl)amino)-N-(2-hydroxyethyl)thieno[3,2-d]pyrimidine-4-carboxamide], the IC50 in assay [1] was more than 500 nM; in assay [2], more than 500 nM; in assay [3], 100 to 500 nM; in assay [4] it was less than 10 nM. Also, the Ratio in assay [4] was found to be 24.38.

Turning to `Cc1cc2nc(N[C@@H](C)c3cncc(F)c3)nc(C(=O)N3CCC3)c2s1` [Example Z276, (S)-Azetidin-1-yl(2-((1-(5-fluoropyridin-3-yl)ethyl)amino)-6-methylthieno[3,2-d]pyrimidin-4-yl)methanone], the IC50 in assay [1] was 50 to 100 nM; in assay [2] it was 50 to 100 nM; in assay [3], 50 to 100 nM; in assay [4], less than 10 nM. In assay [4], the Ratio amounted to 92.47.

Regarding `Cc1cc2nc(N[C@@H](C)c3cncc(F)c3)nc(C(=O)N3CCCC3)c2s1` [Example Z279, (S)-(2-((1-(5-Fluoropyridin-3-yl)ethyl)amino)-6-methylthieno[3,2-d]pyrimidin-4-yl)(pyrrolidin-1-yl)methanone], the IC50 in assay [1] was 50 to 100 nM; in assay [2], 50 to 100 nM; in assay [3] it was 50 to 100 nM; in assay [4], less than 10 nM. Besides, the Ratio in assay [4] was 86.81.

As for `Cc1cc2nc(N[C@@H](C)c3cncc(F)c3)nc(C(=O)NCC(F)(F)F)c2s1` [Example Z280, (S)-2-((1-(5-Fluoropyridin-3-yl)ethyl)amino)-6-methyl-N-(2,2,2-trifluoroethyl)thieno[3,2-d]pyrimidine-4-carboxamide], the IC50 is 50 to 100 nM in assay [1], 10 to 50 nM in assay [2], 10 to 50 nM in assay [3] and less than 10 nM in assay [4]. In assay [4], the Ratio amounted to 24.55.

As for `Cc1cc2nc(N[C@@H](C)c3ccccn3)nc(C(=O)N3CCC3)c2s1` [Example Z284, (S)-Azetidin-1-yl(6-methyl-2-((1-(pyridin-2-yl)ethyl)amino)thieno[3,2-d]pyrimidin-4-yl)methanone], the IC50 is 50 to 100 nM in assay [1], 50 to 100 nM in assay [2], 50 to 100 nM in assay [3] and less than 10 nM in assay [4]. The Ratio in assay [4] turned out to be 56.67.

On to `Cc1cc2nc(N[C@@H](C)c3ccccn3)nc(C(=O)N3CC(O)C3)c2s1` [Example Z285, (S)-(3-Hydroxyazetidin-1-yl)(6-methyl-2-((1-(pyridin-2-yl)ethyl)amino)thieno[3,2-d]pyrimidin-4-yl)methanone], for which the IC50 is 50 to 100 nM in assay [1], 50 to 100 nM in assay [2], 100 to 500 nM in assay [3] and less than 10 nM in assay [4]. Besides, the Ratio in assay [4] is reported as 51.08.

In the case of `COC1CN(C(=O)c2nc(N[C@@H](C)c3cccnc3)nc3cc(C)sc23)C1` [Example Z286, (S)-(3-Methoxyazetidin-1-yl)(6-methyl-2-((1-(pyridin-3-yl)ethyl)amino)thieno[3,2-d]pyrimidin-4-yl)methanone], the IC50 in assay [1] was more than 500 nM; in assay [2], more than 500 nM; in assay [3], 50 to 100 nM; in assay [4], less than 10 nM. Besides, in assay [4], the Ratio amounted to 26.11.

With `Cc1cc2nc(N[C@@H](C)c3ccccn3)nc(C(=O)NC[C@H](C)O)c2s1` [Example Z287, N—((S)-2-Hydroxypropyl)-6-methyl-2-(((S)-1-(pyridin-2-yl)ethyl)amino)thieno[3,2-d]pyrimidine-4-carboxamide], the IC50 in assay [1] is 50 to 100 nM; in assay [2] it was more than 500 nM; in assay [3] it was 100 to 500 nM; in assay [4], 10 to 50 nM. Further, in assay [4], the Ratio was 23.71.

`Cc1cc2nc(N[C@@H](C)c3ccccn3)nc(C(=O)NC[C@@H](C)O)c2s1` [Example Z288, N—((R)-2-Hydroxypropyl)-6-methyl-2-(((S)-1-(pyridin-2-yl)ethyl)amino)thieno[3,2-d]pyrimidine-4-carboxamide]: the IC50 was 50 to 100 nM in assay [1], more than 500 nM in assay [2], 100 to 500 nM in assay [3] and less than 10 nM in assay [4]. The Ratio in assay [4] is 35.51.

With `C[C@H](Nc1nc(C(=O)NCCO)c2sccc2n1)c1cncc(Cl)c1` [Example Z291, (S)-2-((1-(5-Chloropyridin-3-yl)ethyl)amino)-N-(2-hydroxyethyl)thieno[3,2-d]pyrimidine-4-carboxamide], the IC50 in assay [1] is more than 500 nM; in assay [2], 50 to 100 nM; in assay [3] it was more than 500 nM; in assay [4], 10 to 50 nM. For the same compound, the Ratio in assay [4] is recorded as 50.12.

For the compound `C[C@H](O)CNC(=O)c1nc(N[C@@H](C)c2cncc(Cl)c2)nc2ccsc12` [Example Z292, 2-(((S)-1-(5-Chloropyridin-3-yl)ethyl)amino)-N—((S)-2-hydroxypropyl)thieno[3,2-d]pyrimidine-4-carboxamide], the IC50 in assay [1] was 50 to 100 nM; in assay [2] it was 50 to 100 nM; in assay [3], more than 500 nM; in assay [4] it was 10 to 50 nM. In addition, in assay [4], the Ratio is recorded as 60.59.
